Experimental findings from patent US9249147B2, “Tyrosine kinase inhibitors” (CHEMBRIDGE CORPORATION, priority 2008, dated 2016) are described below.

What is called IC50 is the midpoint of a concentration-inhibition curve.

One data set addresses ROS (Homo sapiens, UniProt P08922). Kind of data set: ROS cell free kinase assay (Table 3A). Format: biochemical.
Another data set concerns the target RET (Homo sapiens, UniProt P07949). Briefly: RET cell free kinase assay (Table 3A). Type of data set: biochemical.
The next data set concerns Karpas299. Kind of data set: Cell proliferation inhibition, ALCL line Karpas299. Type of data set: cell-based. Particulars: Homo sapiens, KARPAS-299; Table 3A; read-out: Cellular IC50 K-299. In a few lines: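 NPM-ALK-positive Karpas-299 cells (2×10^4 per well) were treated with compound at final concentrations of 25 to 0.78125 μM, with DMSO-only controls. Proliferation and viability were read colorimetrically by XTT reduction to formazan.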

The next data set relates to SUDHL-1. Briefly: Cellular IC50, SUDHL-1. Format: cell-based. The note with it: Homo sapiens, SU-DHL-1; Table 3A. An excerpt: Cell proliferation inhibition assays were run for compound (II) with the five target NPM-ALK-dependent ALCL cell lines (Karpas 299, SuDHL-1, JB6, SupM2, UConn) and 12 unrelated cell lines (HEK293, CHO-K1, MCF7, HepG2, H292, H520, H1581, H596, H522, CHA-GO-K1, UMC-11, SK-MES1). […] The pronounced target cell-killing effect is also observed (molecular mechanisms to be determined).

The subject of the next data set is U937. Kind of data set: Cellular IC50, U937. Type of data set: cell-based. Particulars: Homo sapiens, U-937; Table 3A.
A short description of data set [1]: Liver microsome stability, Human LM-P1 / HLM. Format: in vitro ADME. Particulars: Table 3A, human liver microsomes; read-out: CL HLM. The source says: Metabolic stability of compound (II) (labeled as CRL241 below) in vitro has been tested in a standard in vitro microsomal stability assay in human microsomes (Cerep Study 13170).
In general terms: Liver microsomes are a subcellular fraction often used to study metabolism.

The nature of data set [2]: Liver microsome stability, Mouse LM-P1 / MLM. Type of data set: in vitro ADME. The note with it: Table 3A, mouse liver microsomes; read-out: CL MLM.
The target in another data set is TRKA (Homo sapiens, UniProt P04629). Kind of data set: TRKA kinase assay. Format: biochemical. Also on record: 6×His- or GST-tagged kinase domain fragments of the corresponding RTKs expressed in baculovirus system; host or cells: baculovirus system. Particulars: Table 3A; read-out: Cell Free IC50 TRKA.
Another data set deals with ALK (Homo sapiens, UniProt Q9UM73). Briefly: ALK kinase assay (Kinase-Glo / AlphaScreen, purified NPM-ALK).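 Note: recombinant baculovirus-expressed ALK kinase domain, activity read either as leftover ATP by Kinase-Glo luminescence or as poly(Glu-Tyr) phosphorylation by anti-phosphotyrosine AlphaScreen proximity signal.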 Format: biochemical. Also on record: fused to the complete intracytoplasmic portion of ALK containing the functional tyrosine kinase domain; 6xHis; made in house; host or cells: insect cells; the other entry of the earlier key: NPM1 (P06748, Nucleophosmin). Particulars: Table 3A; read-out: Cell Free IC50 ALK.
Sequence of ALK (Q9UM73 with tags, fused parts or gaps): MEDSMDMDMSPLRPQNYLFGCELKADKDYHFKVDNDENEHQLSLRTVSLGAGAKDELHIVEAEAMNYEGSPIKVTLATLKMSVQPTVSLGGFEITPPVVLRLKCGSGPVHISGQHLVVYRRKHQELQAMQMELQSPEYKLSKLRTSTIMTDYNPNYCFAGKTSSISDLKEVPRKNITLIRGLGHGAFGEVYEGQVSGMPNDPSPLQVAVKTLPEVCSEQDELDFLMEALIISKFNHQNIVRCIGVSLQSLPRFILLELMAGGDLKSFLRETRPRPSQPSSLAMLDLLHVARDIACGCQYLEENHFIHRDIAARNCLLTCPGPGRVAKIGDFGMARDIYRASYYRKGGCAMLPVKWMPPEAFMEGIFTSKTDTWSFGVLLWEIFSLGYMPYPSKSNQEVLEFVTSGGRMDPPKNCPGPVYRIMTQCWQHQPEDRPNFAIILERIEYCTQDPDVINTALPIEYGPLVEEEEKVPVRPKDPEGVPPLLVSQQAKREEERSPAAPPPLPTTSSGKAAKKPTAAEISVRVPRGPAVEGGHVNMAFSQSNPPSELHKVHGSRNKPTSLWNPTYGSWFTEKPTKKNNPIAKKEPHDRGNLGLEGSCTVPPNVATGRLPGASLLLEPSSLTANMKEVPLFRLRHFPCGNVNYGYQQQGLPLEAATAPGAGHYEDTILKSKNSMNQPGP

Sequence of ROS (P08922 28-2347): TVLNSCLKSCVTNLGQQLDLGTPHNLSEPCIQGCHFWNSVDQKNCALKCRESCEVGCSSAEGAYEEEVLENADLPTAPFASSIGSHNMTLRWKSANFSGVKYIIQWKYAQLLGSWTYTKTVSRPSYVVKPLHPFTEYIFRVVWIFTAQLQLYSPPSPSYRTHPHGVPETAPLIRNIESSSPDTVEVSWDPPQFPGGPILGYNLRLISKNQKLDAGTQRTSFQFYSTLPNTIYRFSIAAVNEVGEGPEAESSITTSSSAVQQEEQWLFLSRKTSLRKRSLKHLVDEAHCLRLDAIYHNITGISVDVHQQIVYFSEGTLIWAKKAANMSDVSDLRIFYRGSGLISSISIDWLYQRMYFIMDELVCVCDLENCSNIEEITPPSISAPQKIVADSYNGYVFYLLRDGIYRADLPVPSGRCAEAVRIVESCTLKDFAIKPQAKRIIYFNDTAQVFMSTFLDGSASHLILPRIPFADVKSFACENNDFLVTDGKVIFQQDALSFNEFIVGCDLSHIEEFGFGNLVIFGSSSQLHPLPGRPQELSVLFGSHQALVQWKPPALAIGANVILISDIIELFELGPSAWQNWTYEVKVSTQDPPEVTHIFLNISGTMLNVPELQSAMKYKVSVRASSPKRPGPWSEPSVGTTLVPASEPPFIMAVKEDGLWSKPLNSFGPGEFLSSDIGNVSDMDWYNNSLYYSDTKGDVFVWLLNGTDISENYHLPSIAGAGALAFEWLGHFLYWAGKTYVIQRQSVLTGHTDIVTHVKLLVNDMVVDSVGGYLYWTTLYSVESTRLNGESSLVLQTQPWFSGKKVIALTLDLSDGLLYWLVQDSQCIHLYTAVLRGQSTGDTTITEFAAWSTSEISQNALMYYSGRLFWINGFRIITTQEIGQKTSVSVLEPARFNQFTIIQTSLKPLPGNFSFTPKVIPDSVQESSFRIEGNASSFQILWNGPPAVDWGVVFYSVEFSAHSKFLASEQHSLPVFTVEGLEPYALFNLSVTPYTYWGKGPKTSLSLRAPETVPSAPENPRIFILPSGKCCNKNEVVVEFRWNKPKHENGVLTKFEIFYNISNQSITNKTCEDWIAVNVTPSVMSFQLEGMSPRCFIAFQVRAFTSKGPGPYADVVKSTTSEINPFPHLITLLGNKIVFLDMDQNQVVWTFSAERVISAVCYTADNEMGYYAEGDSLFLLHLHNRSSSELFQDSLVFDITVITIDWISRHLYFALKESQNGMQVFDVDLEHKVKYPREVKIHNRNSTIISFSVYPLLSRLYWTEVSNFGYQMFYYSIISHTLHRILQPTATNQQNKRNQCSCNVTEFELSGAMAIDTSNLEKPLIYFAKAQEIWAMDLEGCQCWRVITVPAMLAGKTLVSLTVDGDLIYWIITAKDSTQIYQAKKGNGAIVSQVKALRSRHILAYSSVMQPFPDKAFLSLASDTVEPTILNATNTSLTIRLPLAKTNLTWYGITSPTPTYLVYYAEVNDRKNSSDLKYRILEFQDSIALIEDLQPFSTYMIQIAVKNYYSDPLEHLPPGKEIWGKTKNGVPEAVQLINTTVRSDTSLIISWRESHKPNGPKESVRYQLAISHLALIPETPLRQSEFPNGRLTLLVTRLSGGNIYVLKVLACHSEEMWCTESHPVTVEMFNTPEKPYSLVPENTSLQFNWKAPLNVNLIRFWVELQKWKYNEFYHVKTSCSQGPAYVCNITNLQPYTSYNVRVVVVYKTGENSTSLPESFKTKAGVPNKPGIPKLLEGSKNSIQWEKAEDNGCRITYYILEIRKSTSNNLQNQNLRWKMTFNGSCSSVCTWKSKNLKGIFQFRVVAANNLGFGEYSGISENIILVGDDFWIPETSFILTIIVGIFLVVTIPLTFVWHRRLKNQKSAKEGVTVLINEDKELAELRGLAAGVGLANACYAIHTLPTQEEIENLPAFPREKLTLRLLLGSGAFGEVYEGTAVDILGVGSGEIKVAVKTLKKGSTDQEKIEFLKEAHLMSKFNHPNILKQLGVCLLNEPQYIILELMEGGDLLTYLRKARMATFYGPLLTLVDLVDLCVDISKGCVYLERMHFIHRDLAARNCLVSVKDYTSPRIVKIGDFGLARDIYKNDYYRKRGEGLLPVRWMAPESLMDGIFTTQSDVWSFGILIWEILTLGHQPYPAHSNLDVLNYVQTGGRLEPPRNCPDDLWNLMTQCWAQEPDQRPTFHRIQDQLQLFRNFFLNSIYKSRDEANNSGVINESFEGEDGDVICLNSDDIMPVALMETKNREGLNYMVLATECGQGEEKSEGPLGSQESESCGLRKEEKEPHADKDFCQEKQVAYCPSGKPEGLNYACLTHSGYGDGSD
Sequence of RET (P07949 29-1114): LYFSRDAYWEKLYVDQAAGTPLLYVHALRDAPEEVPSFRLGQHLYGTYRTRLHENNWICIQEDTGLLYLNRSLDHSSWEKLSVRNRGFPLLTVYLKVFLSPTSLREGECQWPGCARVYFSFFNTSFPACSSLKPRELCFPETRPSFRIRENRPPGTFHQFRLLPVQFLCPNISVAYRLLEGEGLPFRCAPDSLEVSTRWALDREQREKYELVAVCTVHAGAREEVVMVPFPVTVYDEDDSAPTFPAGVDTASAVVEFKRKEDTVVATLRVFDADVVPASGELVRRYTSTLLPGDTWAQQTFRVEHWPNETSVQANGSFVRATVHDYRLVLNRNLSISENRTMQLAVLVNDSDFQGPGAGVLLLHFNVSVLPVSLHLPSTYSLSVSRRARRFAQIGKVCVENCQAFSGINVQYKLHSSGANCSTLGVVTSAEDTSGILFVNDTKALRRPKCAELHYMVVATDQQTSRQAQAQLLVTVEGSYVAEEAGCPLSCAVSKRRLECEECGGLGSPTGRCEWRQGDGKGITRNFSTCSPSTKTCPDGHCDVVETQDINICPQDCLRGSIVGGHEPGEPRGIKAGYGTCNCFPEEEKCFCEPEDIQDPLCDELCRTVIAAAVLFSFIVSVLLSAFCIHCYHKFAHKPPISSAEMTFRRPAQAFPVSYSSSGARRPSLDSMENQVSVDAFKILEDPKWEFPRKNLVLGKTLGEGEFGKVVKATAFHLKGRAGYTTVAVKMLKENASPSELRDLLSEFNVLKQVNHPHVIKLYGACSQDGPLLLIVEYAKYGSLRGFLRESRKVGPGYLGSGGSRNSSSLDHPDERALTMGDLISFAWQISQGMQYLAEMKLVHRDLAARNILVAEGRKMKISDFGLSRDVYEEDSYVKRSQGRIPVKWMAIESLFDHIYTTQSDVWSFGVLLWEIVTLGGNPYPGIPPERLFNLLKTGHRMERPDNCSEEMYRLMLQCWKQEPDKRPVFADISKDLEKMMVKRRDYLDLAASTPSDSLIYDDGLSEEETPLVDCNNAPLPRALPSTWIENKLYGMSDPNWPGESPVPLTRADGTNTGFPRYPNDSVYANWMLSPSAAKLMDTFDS
Sequence of TRKA (P04629 510-781 limits assumed): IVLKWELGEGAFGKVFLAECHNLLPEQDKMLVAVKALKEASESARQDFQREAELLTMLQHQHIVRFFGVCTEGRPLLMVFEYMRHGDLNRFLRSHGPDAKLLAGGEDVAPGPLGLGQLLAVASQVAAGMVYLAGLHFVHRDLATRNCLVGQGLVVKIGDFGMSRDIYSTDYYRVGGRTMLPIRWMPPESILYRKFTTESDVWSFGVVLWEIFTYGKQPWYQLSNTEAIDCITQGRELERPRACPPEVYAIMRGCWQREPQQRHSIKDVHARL

Consider `C[C@@H](Cc1c(F)c(F)cc(F)c1F)Nc1cc[nH]c(=O)c1-c1nc2cc3c(cc2[nH]1)C(=O)N(C1CCN(C)CC1)C3`, for which the IC50 at ROS was 0.3 nM; against RET it was 6 nM; in the data set with Karpas299, 99 nM; in the data set with SUDHL-1, 93 nM; in the data set with U937, 1180 nM; at TRKA, 5 nM. In addition, the IC50 on ALK amounted to 10 nM. In addition, the CLint scaled in data set [1] and in data set [2] was below 5.8 mL/min/kg each time.
